Experimental data as given in PubChem BioAssay AID330 (DTP/NCI, 2004).
Values joined by “and” are separate entries in the source; they are usually repeats but may differ in a detail not shown here. Equal values may be shown once. Inconclusive results and toxic doses are left out. How the source made its calls: active means survival T/C of 150% or more; inactive means T/C below 125% in these data.

Tested on: P388 leukemia ip, CD2F1 mice, survival T/C
Assay: NCI In Vivo Anticancer Drug Screen. Data for tumor model P388 Leukemia (intraperitoneal) in CD2F1 (CDF1) mice
Conditions: endpoint: median survival time, higher = longer survival
In short: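 Mice carrying the transplanted tumor received test compound or vehicle. Survival was recorded in each group, and the value is the treated-group measurement divided by that of the vehicle-treated control group.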

[1] = dose: 100.0 mg/kg/injection, schedule: Q01DX001 (ip), vehicle: Klucel (hydroxypropylcellulose) (HPC)
[2] = dose: 200.0 mg/kg/injection, schedule: Q01DX001 (ip), vehicle: Klucel (hydroxypropylcellulose) (HPC)
[3] = dose: 400.0 mg/kg/injection, schedule: Q01DX001 (ip), vehicle: Klucel (hydroxypropylcellulose) (HPC)
[4] = dose: 100.0 mg/kg/injection, schedule: Q01DX009 (ip), vehicle: saline with Tween-80
[5] = dose: 200.0 mg/kg/injection, schedule: Q01DX009 (ip), vehicle: saline with Tween-80
[6] = dose: 400.0 mg/kg/injection, schedule: Q01DX009 (ip), vehicle: saline with Tween-80
[7] = dose: 25.0 mg/kg/injection, schedule: Q01DX005 (ip), vehicle: saline with Tween-80
[8] = dose: 50.0 mg/kg/injection, schedule: Q01DX005 (ip), vehicle: saline with Tween-80
[9] = dose: 100.0 mg/kg/injection, schedule: Q01DX005 (ip), vehicle: saline with Tween-80
[10] = dose: 200.0 mg/kg/injection, schedule: Q01DX005 (ip), vehicle: saline with Tween-80
[11] = dose: 50.0 mg/kg/injection, schedule: Q01DX009 (ip), vehicle: saline with Tween-80
[12] = dose: 60.0 mg/kg/injection, schedule: Q01DX005 (ip), vehicle: saline with Tween-80
[13] = dose: 60.0 mg/kg/injection, schedule: Q01DX005 (ip), vehicle: saline
[14] = dose: 120.0 mg/kg/injection, schedule: Q01DX005 (ip), vehicle: saline

Measured: T/C

CC1=CC(=O)C(Cc2ccccc2)(c2ccc(O)cc2O)N1 (stereo unspecified)
inactive: [1] 101 % of control | [2] 97 % of control | [3] 89 % of control

CN(C)C1=NN(Cc2ccccc2)C(=O)C1
inactive: dose: 50.0 mg/kg/injection, schedule: Q01DX009 (ip), vehicle: saline 105 % of control | dose: 100.0 mg/kg/injection, schedule: Q01DX009 (ip), vehicle: saline 103 % of control | dose: 200.0 mg/kg/injection, schedule: Q01DX009 (ip), vehicle: saline 96 % of control

O=[N+]([O-])c1ccc(C=C2C(Cl)=C(Cl)C(Cl)=C2Cl)cc1
inactive: dose: 6.25 mg/kg/injection, schedule: Q01DX009 (ip), vehicle: saline with Tween-80 91 % of control | dose: 12.5 mg/kg/injection, schedule: Q01DX009 (ip), vehicle: saline with Tween-80 100 % of control

OCCc1cc[nH]c1
inactive: [4] 104 % of control | [5] 104 % of control | [6] 95 % of control

COc1cc(C=Nc2cccc(Cl)c2)ccc1N(CCCl)CCCl
active: dose: 25.0 mg/kg/injection, schedule: Q04DX003 (ip), vehicle: saline with Tween-80 172 % of control | dose: 50.0 mg/kg/injection, schedule: Q04DX003 (ip), vehicle: saline with Tween-80 181 % of control

CCN(CC)CCOCc1ccc2c(c1)OCO2
inactive: [7] 113 % of control | [8] 113 % of control | [9] 111 % of control

CCCC(=O)O.CCCC(=O)O.CCCC(=O)O.CCCC(=O)O.O=P1(N(CCCl)CCCl)NCCCO1.O=P1(N(CCCl)CCCl)NCCCO1.[Rh].[Rh] (stereo unspecified)
inactive: dose: 0.13 mg/kg/injection, schedule: Q01DX009 (ip), vehicle: olive oil, sesame oil, peanut oil 103 % of control | dose: 0.25 mg/kg/injection, schedule: Q01DX009 (ip), vehicle: olive oil, sesame oil, peanut oil 112 % of control | dose: 0.5 mg/kg/injection, schedule: Q01DX009 (ip), vehicle: olive oil, sesame oil, peanut oil 101 % of control | dose: 1.0 mg/kg/injection, schedule: Q01DX009 (ip), vehicle: olive oil, sesame oil, peanut oil 117 % of control

C=CCOc1cc2c(cc1C(C)c1ccc(F)cc1)OCO2 (stereo unspecified)
inactive: [8] 100 % of control | [9] 104 % of control | [10] 100 % of control

O=C1NC(O)c2cc(F)ccc2O1 (stereo unspecified)
inactive: [7] 104 % of control | [8] 105 % of control and 110 % of control | [9] 111 % of control and 115 % of control | [10] 111 % of control

CCc1c(-c2ccccc2)[nH]c2ccccc12
inactive: dose: 25.0 mg/kg/injection, schedule: Q01DX009 (ip), vehicle: saline with Tween-80 105 % of control | dose: 50.0 mg/kg/injection, schedule: Q01DX009 (ip), vehicle: saline + alcohol 116 % of control | [11] 100 % of control | dose: 100.0 mg/kg/injection, schedule: Q01DX009 (ip), vehicle: saline + alcohol 112 % of control | [4] 115 % of control | dose: 200.0 mg/kg/injection, schedule: Q01DX009 (ip), vehicle: saline + alcohol 103 % of control | dose: 400.0 mg/kg/injection, schedule: Q01DX009 (ip), vehicle: saline + alcohol 108 % of control

CC(=O)N1NC(=O)c2c(c3ccccc3n2C)C1c1ccc(C)cc1 (stereo unspecified)
inactive: [1] 100 % of control | [2] 110 % of control | [3] 110 % of control

O=C(O)/C=C(/C(=O)O)C12CCN3CC4=CCOC5CC(=O)NC1C5C4CC32 (stereo unspecified)
inactive: dose: 60.0 mg/kg/injection, schedule: Q01DX005 (ip), vehicle: Klucel (hydroxypropylcellulose) (HPC) 97 % of control | dose: 120.0 mg/kg/injection, schedule: Q01DX005 (ip), vehicle: Klucel (hydroxypropylcellulose) (HPC) 106 % of control | dose: 240.0 mg/kg/injection, schedule: Q01DX005 (ip), vehicle: Klucel (hydroxypropylcellulose) (HPC) 110 % of control

CC(C)(C)NC1=C([N+](=O)[O-])CCCC1
inactive: [8] 93 % of control | [9] 93 % of control

CN1C(=O)N(C)C2=NC(=O)N(C)C2(C(Cl)(Cl)Cl)C1=O (stereo unspecified)
inactive: dose: 7.5 mg/kg/injection, schedule: Q01DX005 (ip), vehicle: saline with Tween-80 103 % of control | dose: 15.0 mg/kg/injection, schedule: Q01DX005 (ip), vehicle: saline with Tween-80 102 % of control | dose: 30.0 mg/kg/injection, schedule: Q01DX005 (ip), vehicle: saline with Tween-80 112 % of control | [12] 112 % of control

COc1ccc(CC[n+]2cccc(C(=O)c3ccccc3)c2)cc1OC
inactive: dose: 12.5 mg/kg/injection, schedule: Q04DX002 (ip), vehicle: saline 97 % of control | dose: 25.0 mg/kg/injection, schedule: Q04DX002 (ip), vehicle: saline 105 % of control | dose: 50.0 mg/kg/injection, schedule: Q04DX002 (ip), vehicle: saline 101 % of control

O=Cc1ccc(N2OC(c3ccc([N+](=O)[O-])cc3)C(c3ccc([N+](=O)[O-])cc3)C2c2ccc([N+](=O)[O-])cc2)cc1 (stereo unspecified)
inactive: dose: 50.0 mg/kg/injection, schedule: Q01DX009 (ip), vehicle: acetone 96 % of control | dose: 100.0 mg/kg/injection, schedule: Q01DX009 (ip), vehicle: acetone 93 % of control | dose: 200.0 mg/kg/injection, schedule: Q01DX009 (ip), vehicle: acetone 100 % of control

CCN(CC)C(=O)c1c(Cl)c(Cl)c(Cl)c(Cl)c1C(=O)O
inactive: [11] 112 % of control | [4] 96 % of control | [5] 96 % of control | [6] 102 % of control

Cc1ncc(CO)c(CO)c1OCC(O)CN1CCN(C(=O)c2ccccc2)CC1 (stereo unspecified)
inactive: [13] 101 % of control | [14] 104 % of control

C=CC1C(OC2OC(CO)C(O)C(O)C2O)OC=C(C(=O)OC)C1CC1CC(=O)CC(CCc2ccc(O)cc2)O1 (stereo unspecified)
inactive: dose: 8.0 mg/kg/injection, schedule: Q01DX005 (ip), vehicle: distilled water + Tween-80 96 % of control | dose: 16.0 mg/kg/injection, schedule: Q01DX005 (ip), vehicle: distilled water + Tween-80 99 % of control | dose: 25.0 mg/kg/injection, schedule: Q01DX005 (ip), vehicle: water 100 % of control | dose: 32.0 mg/kg/injection, schedule: Q01DX005 (ip), vehicle: distilled water + Tween-80 91 % of control | dose: 50.0 mg/kg/injection, schedule: Q01DX005 (ip), vehicle: water 99 % of control | dose: 64.0 mg/kg/injection, schedule: Q01DX005 (ip), vehicle: distilled water + Tween-80 90 % of control | dose: 100.0 mg/kg/injection, schedule: Q01DX005 (ip), vehicle: water 96 % of control | dose: 200.0 mg/kg/injection, schedule: Q01DX005 (ip), vehicle: water 99 % of control

Cc1cc2c(cc1C)C(O)CCC(=O)N2 (stereo unspecified)
inactive: [12] 95 % of control | dose: 120.0 mg/kg/injection, schedule: Q01DX005 (ip), vehicle: saline with Tween-80 91 % of control | dose: 240.0 mg/kg/injection, schedule: Q01DX005 (ip), vehicle: saline with Tween-80 87 % of control

O=[N+]([O-])c1ccc(/C=C/[n+]2ccc3ccccc3c2)o1
inactive: dose: 1.56 mg/kg/injection, schedule: Q01DX009 (ip), vehicle: saline 107 % of control | dose: 3.12 mg/kg/injection, schedule: Q01DX009 (ip), vehicle: saline 103 % of control | dose: 6.25 mg/kg/injection, schedule: Q01DX009 (ip), vehicle: saline 108 % of control and 91 % of control

Nc1nc(CC(N)C(=O)O)c[se]1 (stereo unspecified)
inactive: [13] 97 % of control | [14] 100 % of control | dose: 240.0 mg/kg/injection, schedule: Q01DX005 (ip), vehicle: saline 100 % of control

COc1ccc(S(=O)(=O)N/N=C/C(=O)O)cc1
inactive: dose: 6.25 mg/kg/injection, schedule: Q01DX009 (ip), vehicle: other 116 % of control | dose: 12.5 mg/kg/injection, schedule: Q01DX005 (ip), vehicle: saline with Tween-80 118 % of control
active: dose: 25.0 mg/kg/injection, schedule: Q01DX009 (ip), vehicle: other 162 % of control | dose: 50.0 mg/kg/injection, schedule: Q01DX005 (ip), vehicle: distilled water + Tween-80 154 % of control | dose: 50.0 mg/kg/injection, schedule: Q01DX009 (ip), vehicle: other 158 % of control and 159 % of control | dose: 100.0 mg/kg/injection, schedule: Q01DX005 (ip), vehicle: distilled water + Tween-80 182 % of control

CN(C)CCN(C)CC(C)(C)C(=O)/C=C/c1ccccc1
inactive: [13] 106 % of control | [14] 107 % of control

COc1cc(-c2ccc(N=Nc3ccc(N)nc3N)c(OC)c2)ccc1N=Nc1ccc(N)nc1N
inactive: [8] 101 % of control | [9] 104 % of control | [10] 90 % of control
